Read-outs that look alike come from different tables or passages of the source.
Columns and labels:
CMV strain VHL/E = test: Transmission electron microscopy of virion morphology in CMV-infected HUVEC; format: cell-based; details: 200 µM A771726, 4-7 days
Experimental: Transmission electron microscopy.was employed to directly examine virion morphology within A771726-treated or untreated CMV-infected HUVEC. HUVEC monolayers in 6-well culture plates were inoculated with CMV strain VHL/E (1.0 PFU/cell) in the presence or absence of 200 µM A771726 as described above, and incubated for 4-7 days. Cells were harvested by brief trypsin digestion, washed twice in PBS, then fixed by the.addition of 1 ml 2% phosphate buffered gluteraldehyde and again pelleted by centrifugation. Specimens were post-fixed in 1% phosphate buffered osmium tetroxide (1 hour), then dehydrated in graded ethanol washes. Specimens were embedded in Spur low viscosity embedding media (SEM). Blocks were cured for a minimum of 12 hours at 70°C. Thin sections (approximately 100 nm) were cut from cured blocks using an ultramicrotome (LKB Nova), and mounted on 200 mesh copper grids. Grids were heavy metal-stained using a standard two-step uranyl acetate/lead citrate technique, then examined and photographed at 80 kV with a Zeiss EM900 transmission electron microscope by an individual with no knowledge of the nature of the investigation.

[1] = system: viral immediate early (IE1) or late glycoprotein (gB) mRNA; test: Northern blot of viral mRNA in infected HUVEC; format: cell-based, CMV; details: 200 µM A771726, 48 hours
Experimental: Northern blot analysis was employed to determine whether A771726 quantitatively affected transcription of viral immediate early (IE1) or late glycoprotein (gB) mRNA.
HUVEC monolayers in 6-well culture plates were inoculated with CMV strain VHL/E (0.5 PFU/cell) in the presence or absence of 200 µM A771726 and/or 200 µM uridine (6 wells/treatment) as described above, and incubated for 48 hours. […] Total cytoplasmic RNA was isolated from each culture, by 18-hour ultracentrifugation of guanidine isothiocyanate/BME extracts overlayed on cesium chloride cushions. […] 50 ng of full-length IE1 and gB were incubated in a 50 µl PCR reaction including a nucleotide triphosphate mix containing 700 nM α-[^32P]dCTP (Amersham) and either IE1 primers [IE1 sense: 5' […] 3' (SEQ ID NO: 1) and IE1 antisense: 5'[…] 3' (SEQ ID NO: 2)] or gB primers [gB sense: 5 […] 3' (SEQ ID NO: 3) and gB antisense: 5' […] 3' (SEQ ID NO: 4)]. A cDNA probe for GAPDH was radiolabelled using a random priming kit (Decaprime II, Ambion, Inc., Austin TX) as previously described. […] Membranes were hybridized, washed, and bound probe was detected by autoradiography as previously described. Membranes were stripped and reprobed for GAPDH, and scanning densitometry was used to quantitate IE1 and gB band densities, and to normalize these values to those of GAPDH.

HSV = test: Transmission electron microscopy of virion morphology in HSV-infected HUVEC; format: cell-based
[2] = system: human lung carcinoma (A549) cells; test: cells; format: cell-based; details: read-out: Neutral Red Uptake test IC50
uninfected cells [3] = test: Cytotoxicity, microscopic reading of uninfected cells in the CPE inhibition test (rhinovirus host cells, not named); format: cell-based
Experimental: (§1) Cytotoxicity of each test compound is also evaluated as follows. In the initial CPE inhibition tests, two wells of uninfected cells treated with each concentration of test compound are run in parallel with the infected, treated wells. When the CPE is determined microscopically, the toxicity control cells are also examined microscopically for any changes in cell appearance compared to normal uninfected, untreated control cells. Changes, which may manifest as enlargement, granularity, ragged edges, filmy appearance, rounding, detachment from the surface of the well, or other changes, are given a designation of T (100% toxic), PVH (partially toxic-very heavy-80%), PH (partially toxic-heavy-60%), P (partially toxic-40%), PS (partially toxic-slight-20%) or 0 (no toxicity-0%) in accordance with the degree of cytotoxicity observed. […] A neutral red IC50 is also determined based on uptake of neutral red dye by the toxicity control cells.

[4] = system: African green monkey kidney (MA-104) cells; test: cells; format: cell-based; details: Chlorocebus sabaeus, MA104, cytotoxic concentration, positive control drug = ribavirin, read-out: CPE Inhibition test IC50
[5] = system: Madin Darby canine kidney (MDCK) cells; test: cells; format: cell-based; details: Canis lupus familiaris, cytotoxic concentration, positive control drug = ribavirin, read-out: CPE Inhibition test IC50
HSV DNA polymerase = target: T1, HSV DNA polymerase (Human herpesvirus 1, UniProt P04293); test: HSV DNA polymerase biochemical assay; details: all HSV isolates in VERO cells and HUVEC
T1 construct: a biochemical assay of HSV DNA polymerase activity in HSV-infected cells; endogenous in cells

[6] = system: African green monkey kidney (MA-104) cells; test: Cytotoxicity, neutral red uptake by toxicity control cells; format: cell-based; details: Chlorocebus sabaeus, MA104, cytotoxic concentration, positive control drug = ribavirin, read-out: Neutral Red Uptake test IC50
uninfected cells [7] = test: Cytotoxicity, neutral red uptake by toxicity control cells (rhinovirus host cells, not named); format: cell-based; details: read-out: Neutral Red Uptake test IC50
Experimental: as §1

[8] = system: African green monkey kidney (CV-1) cells; test: cells; format: cell-based; details: Chlorocebus sabaeus, read-out: CPE Inhibition test IC50
[9] = run with Parainfluenza Type 3 Virus
[10] = run with Respiratory Syncytial Virus A

T1 sequence (P10226 whole entry): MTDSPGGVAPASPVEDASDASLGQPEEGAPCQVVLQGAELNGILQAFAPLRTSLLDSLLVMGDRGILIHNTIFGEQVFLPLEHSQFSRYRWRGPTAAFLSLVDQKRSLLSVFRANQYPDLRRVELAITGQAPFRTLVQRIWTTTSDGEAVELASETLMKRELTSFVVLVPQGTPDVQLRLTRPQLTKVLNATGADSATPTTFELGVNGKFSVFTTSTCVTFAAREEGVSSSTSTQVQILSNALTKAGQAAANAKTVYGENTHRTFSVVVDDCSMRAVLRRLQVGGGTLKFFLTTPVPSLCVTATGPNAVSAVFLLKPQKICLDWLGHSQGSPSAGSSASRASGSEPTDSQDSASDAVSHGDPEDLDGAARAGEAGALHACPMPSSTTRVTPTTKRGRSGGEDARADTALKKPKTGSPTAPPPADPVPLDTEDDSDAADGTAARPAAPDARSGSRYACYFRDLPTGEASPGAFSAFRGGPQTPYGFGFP
T1 sequence (P04293 whole entry): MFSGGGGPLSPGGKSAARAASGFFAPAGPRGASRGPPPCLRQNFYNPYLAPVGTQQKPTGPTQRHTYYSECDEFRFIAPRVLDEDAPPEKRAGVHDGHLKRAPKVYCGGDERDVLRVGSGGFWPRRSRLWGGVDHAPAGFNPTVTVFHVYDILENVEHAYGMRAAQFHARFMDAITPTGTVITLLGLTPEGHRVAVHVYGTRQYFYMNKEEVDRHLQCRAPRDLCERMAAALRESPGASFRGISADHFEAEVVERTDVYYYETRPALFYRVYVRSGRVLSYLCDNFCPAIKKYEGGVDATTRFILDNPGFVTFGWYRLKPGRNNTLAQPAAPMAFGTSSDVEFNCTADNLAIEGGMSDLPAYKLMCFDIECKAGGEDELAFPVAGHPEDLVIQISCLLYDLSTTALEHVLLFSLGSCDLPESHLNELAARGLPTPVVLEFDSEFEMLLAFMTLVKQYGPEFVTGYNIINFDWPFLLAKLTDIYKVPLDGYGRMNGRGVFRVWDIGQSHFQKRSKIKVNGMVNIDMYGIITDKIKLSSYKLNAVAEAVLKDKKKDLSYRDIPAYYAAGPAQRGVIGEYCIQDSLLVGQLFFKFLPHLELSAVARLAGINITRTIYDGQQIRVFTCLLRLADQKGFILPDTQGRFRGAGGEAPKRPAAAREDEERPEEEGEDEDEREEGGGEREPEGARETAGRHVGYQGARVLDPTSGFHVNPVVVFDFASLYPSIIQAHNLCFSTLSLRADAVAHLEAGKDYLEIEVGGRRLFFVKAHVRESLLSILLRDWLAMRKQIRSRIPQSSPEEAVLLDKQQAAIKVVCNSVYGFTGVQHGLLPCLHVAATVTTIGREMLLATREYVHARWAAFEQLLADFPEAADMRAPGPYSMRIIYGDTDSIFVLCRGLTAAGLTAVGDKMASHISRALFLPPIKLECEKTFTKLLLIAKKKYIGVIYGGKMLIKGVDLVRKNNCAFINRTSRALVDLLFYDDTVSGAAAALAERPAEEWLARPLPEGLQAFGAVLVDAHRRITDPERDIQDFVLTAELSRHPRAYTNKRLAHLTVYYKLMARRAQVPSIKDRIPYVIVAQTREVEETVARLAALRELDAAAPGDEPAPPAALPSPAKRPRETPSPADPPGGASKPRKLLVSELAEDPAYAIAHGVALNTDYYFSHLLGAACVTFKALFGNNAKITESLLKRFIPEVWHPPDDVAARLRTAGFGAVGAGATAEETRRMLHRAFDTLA

C/C(O)=C(\C#N)C(=O)Nc1ccc(C(F)(F)F)cc1 [Compound A771726, N-(4-trifluoromethylphenyl)-2-cyano-3-hydroxycrotonamide]
virion morphology in the cytoplasm (CMV strain VHL/E): viral particles appeared not to have matured far beyond the 100 nM naked capsid stage
transcription of IE1 or gB genes [1]: no inhibitory effect
virion morphology, tegument acquisition (HSV): appear not to acquire tegument
IC50 [2]: 580 µM
IC50 (uninfected cells [3]): 1000 µM
IC50 [4, 9]: 30 µM
IC50 [4, 10]: 20 µM
IC50 ([5]; run with Influenza A (H1N1)): 29 µM
IC50 ([5]; run with Influenza A (H3N2)): 30 µM
IC50 ([5]; run with Influenza B): 50 µM
HSV DNA polymerase activity (HSV DNA polymerase): no detectable inhibitory effect
IC50 [6, 9]: 50 µM
IC50 [6, 10]: 143 µM
IC50 (uninfected cells [7]): 500 µM
IC50 [8]: > 660 µM

Source: patent publication EP1169036B1, “ANTI-VIRAL USES OF LEFLUNOMIDE PRODUCTS” (priority 1998, dated 1999)
